Data from patent US5132304A, “Benzothiazine derivatives and their applications as medicinal products or as synthesis intermediates for medicinal products” (Laboratorios Del Dr. Esteve, S. A., priority 1989, dated 1992).

Test system: carrageenan-induced oedema in Wistar rats
Assay: Inhibition of carrageenan-induced oedema in Wistar rats 3 hours after oral administration
Format: in vivo
Settings: p.o.; for Oedema inhibition: N=10, 3 hours after administration; for ED50: Rattus norvegicus, calculated from results 3 hours after oral administration, 2 hours after carrageenan
Experimental: (Inhibition of carrageenan-induced oedema)
The method followed was that described by Winter et al. (Proc. Soc. Exp. Biol. Med. […]; 111; 544-547).
Inhibition of carrageenan-induced oedema in Wistar rats 3 hours after administration of the product: […]

| SMILES | Oedema inhibition (2.5 mg/kg) [%] | Oedema inhibition (5 mg/kg) [%] | Oedema inhibition (10 mg/kg) [%] | Oedema inhibition (40 mg/kg) [%] | ED50 [mg/kg] | Oedema inhibition (12.5 mg/kg) [%] | Oedema inhibition (25 mg/kg) [%] |
| --- | --- | --- | --- | --- | --- | --- | --- |
| CCOC(=O)OC1=C(C(=O)N(C(=O)OCC)c2ccccn2)N(C)S(=O)(=O)c2ccccc21 [Example 1, N-ethoxycarbonyl-N-(2-pyridyl)-4-ethoxy-carbonyloxy-2-methyl-2H-1,2-benzothiazine-3-carboxamide 1,1-dioxide] | 33.8 | 54.3 | 63.8 | 65.5 | 5.6 | – | – |
| CCCCC1C(=O)N(c2ccccc2)N(c2ccccc2)C1=O [Phenylbutazone, phenylbutazone, reference compound] | – | – | – | – | 19.6 | 46.6 | 52.1 |
